Test results: patent EP0094564A2, “Azolyl-methyl oxiranes, their preparation and use as medicaments and plant protecting agents” (BASF Aktiengesellschaft, priority 1982, dated 1983)
Converted amounts (≈) assume the structure as drawn.

What was measured:
Trichom. vag. = assay: Minimal inhibitory concentration in vitro (protozoa); assay type: cell-based; details: read-out: Minimale Hemmkonzentration (MHK) Trichom. vag.
From the text: (§1) Die Wirkung gegen Dermatophyten, Bakterien und Protozonen kann nach Methoden, wie sie beispielsweise in P. Klein, Bakteriologische Grundlagen der chemotherapeutischen Laboratoriumspraxis, Springer-Verlag Berlin, 1957, beschrieben wird, aufgezeigt werden. Die überraschende Wirkung gegenüber Hefen wurde im Pseudomyzel- und Myzelphasentest mit Candida albicans nachgewiesen (vgl. DE-OS 30 10 093). Es wurde geprüft, welche minimalen Hemmkonzentrationen (MHK-Werte) im Agardilutionstest erreicht werden. In der Tabelle 1 sind die Ergebnisse zusammengefaßt.

[1] = tested on: Gurkenmehltau (Erysiphe cichoracearum); assay: Versuch 3: activity against cucumber powdery mildew on cucumber seedlings; assay type: in vivo; details: 0,025 %ige Spritzbrühe; sprayed about 20 h after inoculation; assessed after 21 days; value given as 'beispielsweise'
From the text: Blätter von in Töpfen gewachsenen Gurkenkeimlingen der Sorte "Chinesische Schlange" wurden im Zweiblattstadium mit einer Sporensuspension des Gurkenmehltaus (Erysiphe cichoracearum) besprüht. Nach etwa 20 Stunden wurden die Versuchspflanzen mit wäßriger Spritzbrühe, die 80 % Wirkstoff und 20 % Emulgiermittel in der Trockensubstanz enthielt, bis zur Tropfnässe besprüht. Nach dem Antrocknen des J Spritzbelages wurden sie anschließend im Gewächshaus bei Temperaturen zwischen 20 und 22^00 und 70 bis 80 % relativer Luftfeuchtigkeit aufgestellt. Zur Beurteilung der Wirksamkeit der neuen Stoffe wurde das Ausmaß der Pilzentwicklung nach 21 Tagen beurteilt.

Cand.alb. H = assay: Candida albicans pseudomycelium/mycelium phase test, MIC; assay type: cell-based; details: in vitro, column H, read-out: Minimale Hemmkonzentration (MHK) Cand.alb. H
From the text: as §1

[2] = tested on: Weizenmehltau (Erysiphe graminis var. tritici); assay: Versuch 1: activity against wheat powdery mildew on wheat seedlings; assay type: in vivo; details: 0,025; 0,006; 0,0015 %ige Spritzbrühen; sprayed 24 h before inoculation; assessed after 7 days; value given as 'beispielsweise'
Protocol: Blätter von in Töpfen gewachsenen Weizenkeimlingen der Sorte "Jubilar" wurden mit wäßriger Spritzbrühe, die 80 % (Gew.%) Wirkstoff und 20 % Emulgiermittel in der Trockensubstanz enthielt, besprüht und 24 Stunden nach dem Antrocknen des Spritzbelages mit Oidien (Sporen) des Weizenmehltaus (Erysiphe graminis var. tritici) bestäubt. Die Versuchspflanzen wurden anschließend im Gewächshaus bei Temperaturen zwischen 20 und 22 °C und 75 bis 80 % relativer Luftfeuchtigkeit aufgestellt. Nach 7 Tagen wurde das Ausmaß der Mehltauentwicklung ermittelt.

Botrytis cinerea = assay: Versuch 4: activity against Botrytis cinerea on paprika seedlings; assay type: in vivo; details: 0,05 %ige Spritzbrühe; sprayed before inoculation; assessed after 5 days; value given as 'beispielsweise'
From the text: Paprikasämlinge der Sorte "Neusiedler Ideal Elite" wurden, nachdem sich 4 bis 5 Blätter gut entwickelt hatten, mit wäßrigen Suspensionen, die 80 % Wirkstoff und 20 % Emulgiermittel in der Trockensubstanz enthielten, tropfnaß gespritzt. Nach dem Antrocknen des Spritzbelages wurden die Pflanzen mit einer Konidienaufschwemmung des Pilzes Botrytis cenerea besprüht und bei 22 bis 24 C in eine Kammer mit hoher Luftfeuchtigkeit gestellt. Nach 5 Tagen hatte sich die Krankheit auf den unbehandelten Kontrollpflanzen so stark entwickelt, daß die entstandenen Blattnekrosen den überwiegenden Teil der Blätter bedeckten.

Cand.alb. M = assay: Candida albicans pseudomycelium/mycelium phase test, MIC (column M); assay type: cell-based; details: in vitro, read-out: Minimale Hemmkonzentration (MHK) Cand.alb. M
From the text: as §1

Trichoph. ment. 21 = assay: Agar dilution test, minimal inhibitory concentration in vitro; assay type: cell-based; details: read-out: Minimale Hemmkonzentration (MHK) Trichoph. ment. 21
From the text: as §1

Staph. aur. SG 511 = assay: as above; assay type: cell-based; details: read-out: Minimale Hemmkonzentration (MHK) Staph. aur. SG 511
From the text: as §1

Abs. corym. 1 = assay: as above; assay type: cell-based; details: read-out: Minimale Hemmkonzentration (MHK) Abs. corym. 1
From the text: as §1

Mucor pus. 6 = assay: as above; assay type: cell-based; details: read-out: Minimale Hemmkonzentration (MHK) Mucor pus. 6
From the text: as §1

Epid. flocc. 157 = assay: as above; assay type: cell-based; details: read-out: Minimale Hemmkonzentration (MHK) Epid. flocc. 157
From the text: as §1

Strept. faec. 8043 = assay: as above; assay type: cell-based; details: read-out: Minimale Hemmkonzentration (MHK) Strept. faec. 8043
From the text: as §1

Aps.fum. 2 = assay: as above; assay type: cell-based; details: read-out: Minimale Hemmkonzentration (MHK) Aps.fum. 2
From the text: as §1

E.coli muta-flor = assay: as above; assay type: cell-based; details: Escherichia coli, read-out: Minimale Hemmkonzentration (MHK) E.coli muta-flor
From the text: as §1

Entamoeb hist. = assay: Minimal inhibitory concentration in vitro (protozoa); assay type: cell-based; details: read-out: Minimale Hemmkonzentration (MHK) Entamoeb hist.
From the text: as §1

[3] = tested on: Weizenbraunrost (Puccinia recondita); assay: Versuch 2: activity against wheat brown rust on wheat seedlings; assay type: in vivo; details: 0,025; 0,006; 0,0015 %ige Spritzbrühen; sprayed 24 h after inoculation; assessed after 8 days; value given as 'beispielsweise'
Protocol: Blätter von in Töpfen gewachsenen Weizensämlingen der Sorte "Jubilar" wurden mit Sporen des Braunrostes (Puccinia recondita) bestäubt. Danach wurden die Töpfe für 24 Stunden bei 20 bis 22°C in eine Kammer mit hoher Luftfeuchtigkeit (90 bis 95 %) gestellt. Während dieser Zeit keimten die Sporen aus und die Keimschläuche drangen in das Blattgewebe ein. Die infizierten Pflanzen wurden anschließend mit wäßrigen Spritzbrühen, die 80 % Wirkstoff und 20 % Emulgiermittel in der Trockensubstanz enthielten, tropfnaß gespritzt. Nach dem Antrocknen des Spritzbelages wurden die Versuchspflanzen im Gewächshaus bei Temperaturen zwischen 20 und 22°C und 65 bis 70 % relativer Luftfeuchte aufgestellt. Nach 8 Tagen wurde das Ausmaß der Rostpilzentwicklung auf den Blättern ermittelt.

Microsp. ferrug. 5 = assay: Agar dilution test, minimal inhibitory concentration in vitro; assay type: cell-based; details: read-out: Minimale Hemmkonzentration (MHK) Microsp. ferrug. 5
From the text: as §1

Coniophora puteana = assay: Versuch 6: fungal growth on malt extract agar containing active ingredient; assay type: cell-based; parameters: key: 0 = kein Pilzwachstum (Pilzmyzel abgetötet); 1 = geringes Pilzwachstum (bis 1/3 der Agaroberfläche bewachsen); 3 = mittleres Pilzwachstum (bis 2/3 der Agaroberfläche bewachsen); 5 = ungehemmtes Pilzwachstum (gesamte Agaroberfläche bewachsen); details: 40 ppm in 5 % malt extract agar; 5 days at 25 °C; growth score
From the text: (§2) Die Wirkstoffe werden in Aceton gelöst, in Mengen von 40 ppm einem verflüssigten 5 %igen Malzextraktagar zugesetzt. Der Agar wird in Petrischalen ausgegossen und nach dem Erstarren werden die fungizidhaltigen Nähragarplatten zentral mit Myzel der holzzerstörenden Pilze Coniophora puteana und Trametes versicolor, des Moderfäule und Stockflecken verursachenden Pilzes Chaetomium globosum sowie mit Sporen des grünen Holzschimmels Trichoderma viride beimpft.
(§3) Nach fünftägiger Bebrütung der Schalen bei 25 °C wird die Entwicklung der Pilzkolonien auf dem Nährboden im Vergleich mit der Kontrolle (ohne Wirkstoff-Zusatz) beurteilt: • 0 = kein Pilzwachstum (Pilzmyzel abgetötet) • 1 = geringes Pilzwachstum (bis 1/3 der Agaroberfläche bewachsen) • 3 = mittleres Pilzwachstum (bis 2/3 der Agaroberfläche bewachsen) • 5 = ungehemmtes Pilzwachstum (gesamte Agaroberfläche bewachsen)

Trametes versicolor = assay: as above; assay type: cell-based; parameters: key: 0 = kein Pilzwachstum (Pilzmyzel abgetötet); 1 = geringes Pilzwachstum (bis 1/3 der Agaroberfläche bewachsen); 3 = mittleres Pilzwachstum (bis 2/3 der Agaroberfläche bewachsen); 5 = ungehemmtes Pilzwachstum (gesamte Agaroberfläche bewachsen); details: 40 ppm in 5 % malt extract agar; 5 days at 25 °C; growth score
From the text: as §2, §3

Trichoderma viride = assay: as above; assay type: cell-based; parameters: key: 0 = kein Pilzwachstum (Pilzmyzel abgetötet); 1 = geringes Pilzwachstum (bis 1/3 der Agaroberfläche bewachsen); 3 = mittleres Pilzwachstum (bis 2/3 der Agaroberfläche bewachsen); 5 = ungehemmtes Pilzwachstum (gesamte Agaroberfläche bewachsen); details: 40 ppm in 5 % malt extract agar; 5 days at 25 °C; growth score
From the text: as §2, §3

Chaetomium globosum = assay: as above; assay type: cell-based; parameters: key: 0 = kein Pilzwachstum (Pilzmyzel abgetötet); 1 = geringes Pilzwachstum (bis 1/3 der Agaroberfläche bewachsen); 3 = mittleres Pilzwachstum (bis 2/3 der Agaroberfläche bewachsen); 5 = ungehemmtes Pilzwachstum (gesamte Agaroberfläche bewachsen); details: 40 ppm in 5 % malt extract agar; 5 days at 25 °C; growth score
From the text: as §2, §3

| Structure (SMILES) | MIC (Trichom. vag.) [µg/mL] | fungizide Wirkung gegen Gurkenmehltau [1] [%] | MIC (Cand.alb. H) [µg/mL] | fungizide Wirkung gegen Weizenmehltau [2] [%] | fungizide Wirkung gegen Botrytis cinerea an Paprika (Botrytis cinerea) [%] | MIC (Cand.alb. M) [µg/mL] | MIC (Trichoph. ment. 21) [µg/mL] | MIC (Staph. aur. SG 511) [µg/mL] | MIC (Abs. corym. 1) [µg/mL] | MIC (Mucor pus. 6) [µg/mL] | MIC (Epid. flocc. 157) [µg/mL] | MIC (Strept. faec. 8043) [µg/mL] | MIC (Aps.fum. 2) [µg/mL] | MIC (E.coli muta-flor) [µg/mL] | MIC (Entamoeb hist.) [µg/mL] | fungizide Wirkung gegen Weizenbraunrost [3] [%] | MIC (Microsp. ferrug. 5) [µg/mL] | also measured |
| --- | --- | --- | --- | --- | --- | --- | --- | --- | --- | --- | --- | --- | --- | --- | --- | --- | --- | --- |
| Clc1ccc(C2(Cn3ccnc3)OC2c2ccc(Cl)cc2Cl)cc1 (single isomer, unassigned) [Beispiel 1, 2-(1H-Imidazol-1-yl-methyl)-2-(4-chlorphenyl)-3-(2,4-dichlorphenyl)-oxiran] | > 16 | 100 | 16 (≈ 42.1 µM) | 100 | 97 | < 0.0039 | 0.5 (≈ 1.32 µM) | 16 (≈ 42.1 µM) | 0.5 (≈ 1.32 µM) | 1 (≈ 2.63 µM) | 0.5 (≈ 1.32 µM) | 128 (≈ 337 µM) | 1 (≈ 2.63 µM) | > 128 | – | – | – | – |
| Clc1ccc(C2(Cn3cncn3)OC2c2ccc(Cl)cc2Cl)cc1 (single isomer, unassigned) [Beispiel 3, 2-(1,2,4-Triazol-1-yl--methyl)-2-(4-chlorphenyl)-3-(2,4-dichlorphenyl)-oxiran] | > 16 | – | > 128 | – | 97 | – | 8 (≈ 21 µM) | 32 (≈ 84.1 µM) | 2 (≈ 5.25 µM) | 1 (≈ 2.63 µM) | 4 (≈ 10.5 µM) | > 128 | > 128 | > 128 | > 1 | 100 | 2 (≈ 5.25 µM) | – |
| CC(C)(C)C1(Cn2ccnc2)OC1c1ccc(Cl)cc1Cl (single isomer, unassigned) [Beispiel 18] | > 16 | 100 | > 16 | – | – | – | 0.5 (≈ 1.54 µM) | 4 (≈ 12.3 µM) | 32 (≈ 98.4 µM) | 16 (≈ 49.2 µM) | 0.25 (≈ 0.769 µM) | 2 (≈ 6.15 µM) | 0.5 (≈ 1.54 µM) | > 128 | > 1 | – | 0.25 (≈ 0.769 µM) | – |
| CC(C)(C)c1ccc(C2OC2(Cn2ccnc2)c2ccc(Cl)cc2Cl)cc1 (single isomer, unassigned) [Beispiel 21] | > 16 | – | 2 (≈ 4.98 µM) | – | – | 1 (≈ 2.49 µM) | 16 (≈ 39.9 µM) | 8 (≈ 19.9 µM) | 16 (≈ 39.9 µM) | 8 (≈ 19.9 µM) | 16 (≈ 39.9 µM) | 2 (≈ 4.98 µM) | > 128 | > 128 | > 1 | – | 8 (≈ 19.9 µM) | – |
| COc1cccc(C2OC2(Cn2ccnc2)c2ccc(Cl)cc2)c1 (single isomer, unassigned) [Beispiel 29] | > 16 | – | 128 (≈ 376 µM) | – | – | 0.25 (≈ 0.734 µM) | 2 (≈ 5.87 µM) | 16 (≈ 46.9 µM) | 8 (≈ 23.5 µM) | 4 (≈ 11.7 µM) | 2 (≈ 5.87 µM) | 4 (≈ 11.7 µM) | 16 (≈ 46.9 µM) | > 128 | > 1 | – | 2 (≈ 5.87 µM) | – |
| Clc1ccc(C2OC2(Cn2cncn2)c2ccc(Br)cc2)cc1 (single isomer, unassigned) [Beispiel 44] | – | 100 | – | 100 | 97 | – | – | – | – | – | – | – | – | – | – | 100 | – | Wirksamkeit gegen Coniophora puteana (Coniophora puteana): 0; Wirksamkeit gegen Trametes versicolor (Trametes versicolor): 0; Wirksamkeit gegen Trichoderma viride (Trichoderma viride): 0; Wirksamkeit gegen Chaetomium globosum (Chaetomium globosum): 1 |
| Clc1ccc(C2(Cn3cncn3)OC2c2ccc(Br)cc2)cc1 (single isomer, unassigned) [Beispiel 46] | – | – | – | 100 | 97 | – | – | – | – | – | – | – | – | – | – | 100 | – | Wirksamkeit gegen Coniophora puteana (Coniophora puteana): 0; Wirksamkeit gegen Trametes versicolor (Trametes versicolor): 0; Wirksamkeit gegen Trichoderma viride (Trichoderma viride): 0; Wirksamkeit gegen Chaetomium globosum (Chaetomium globosum): 0 |
| Clc1ccc(C2(Cn3ccnc3)OC2c2ccc(Br)cc2)cc1 (single isomer, unassigned) [Beispiel 47] | > 16 | – | 64 (≈ 164 µM) | – | – | 0.0156 (≈ 0.04 µM) | 1 (≈ 2.57 µM) | 8 (≈ 20.5 µM) | 2 (≈ 5.13 µM) | 2 (≈ 5.13 µM) | 1 (≈ 2.57 µM) | 4 (≈ 10.3 µM) | 16 (≈ 41.1 µM) | > 128 | > 1 | – | 0.25 (≈ 0.642 µM) | – |
